Eight molecules from patent US10052320B2, “Substituted quinoxalines as FGFR kinase inhibitors” (ASTEX THERAPEUTICS LIMITED, priority 2011, dated 2018) can be followed below.

In experiment [1] the test system is Ba/F3-KDR-transfected cells in the presence of 10 ng/ml murine IL3. In words: Ba/F3-KDR (plus IL3) cellular proliferation counterscreen, Alamar Blue. As to conditions: Mus musculus; plus 10 ng/ml murine IL3; read-out: BAF3-KDR (PLUS IL3) 384 well pIC50 (converted). The format is cell-based. The method, then: Ba/F3-KDR (Minus IL3 or Plus IL3) (Cellular Proliferation Assay)
[…] Cells were put in an incubator at 37° C. and 5% CO2. After 24 hours, 10 μl of Alamar Blue solution (0.5 mM K3Fe(CN)6, 0.5 mM KaFe(CN)6, 0.15 mM Resazurin and 100 mM Phosphate Buffer) was added to the wells, incubated for 4 hours at 37° C. and 5% CO2 before RFU's (Relative Fluorescence Units) (ex. 540 nm., em. 590 nm.) were measured in a flurorescence plate reader.
As a counterscreen the same experiment was performed in the presence of 10 ng/ml murine IL3.
In a 96 well plate, 180 μl cell culture medium (phenol red free RPMI-1640, 10% FBS, 2 mM L-Glutamine and 50 μg/ml Gentamycin) containing 10000 cells per well of Ba/F3-KDR-transfected cells were pipette and 20 μl of compound dilution in DMSO was added. Cells were put in an incubator at 37° C. and 5% CO2. After 24 hours, 40 μl of Alamar Blue solution (0.5 mM K3Fe(CN)6, 0.5 mM KaFe(CN)6, 0.15 mM Resazurin and 100 mM Phosphate Buffer) was added to the wells, incubated for 4 hours at 37° C. and 5% CO2 RFU's (Relative Fluorescence Units) (ex. 540 nm., em. 590 nm.) were measured in a flurorescence plate reader.

The target in experiment [2] is T1, Ba/F3-Flt3-transfected cells (Homo sapiens, UniProt P36888, cells depend on it, form not given).
T1 sequence (P36888 1-993): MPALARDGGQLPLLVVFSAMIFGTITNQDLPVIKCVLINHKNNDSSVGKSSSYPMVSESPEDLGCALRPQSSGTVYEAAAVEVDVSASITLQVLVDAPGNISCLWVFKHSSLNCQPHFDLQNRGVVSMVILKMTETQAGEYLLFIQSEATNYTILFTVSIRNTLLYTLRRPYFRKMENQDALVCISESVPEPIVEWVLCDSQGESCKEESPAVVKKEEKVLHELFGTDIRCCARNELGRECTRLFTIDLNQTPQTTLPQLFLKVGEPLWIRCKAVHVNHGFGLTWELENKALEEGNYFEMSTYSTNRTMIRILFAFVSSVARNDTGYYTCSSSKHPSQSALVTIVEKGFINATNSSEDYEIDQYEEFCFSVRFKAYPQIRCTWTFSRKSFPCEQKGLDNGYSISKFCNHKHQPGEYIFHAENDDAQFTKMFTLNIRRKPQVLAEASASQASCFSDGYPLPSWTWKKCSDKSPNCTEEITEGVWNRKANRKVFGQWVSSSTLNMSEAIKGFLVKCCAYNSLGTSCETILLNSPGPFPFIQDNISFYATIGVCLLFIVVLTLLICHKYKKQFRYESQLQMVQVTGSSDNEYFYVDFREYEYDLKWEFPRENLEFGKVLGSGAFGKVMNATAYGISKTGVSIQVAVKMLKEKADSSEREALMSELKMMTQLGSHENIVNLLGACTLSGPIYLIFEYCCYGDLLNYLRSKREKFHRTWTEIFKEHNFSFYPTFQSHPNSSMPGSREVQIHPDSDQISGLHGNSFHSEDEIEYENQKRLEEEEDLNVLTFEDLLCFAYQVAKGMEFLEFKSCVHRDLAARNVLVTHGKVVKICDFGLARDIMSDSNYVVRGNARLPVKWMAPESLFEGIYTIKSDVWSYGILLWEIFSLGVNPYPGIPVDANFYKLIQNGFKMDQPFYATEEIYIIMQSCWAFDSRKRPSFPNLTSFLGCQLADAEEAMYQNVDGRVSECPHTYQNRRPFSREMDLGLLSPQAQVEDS
The experiment in a line: Ba/F3-Flt3 (minus IL3) cellular proliferation assay, Alamar Blue. The format is cell-based. As to conditions: minus IL3.

In another experiment the target is FGFR1 (h) (Homo sapiens, UniProt P11362). The experiment in a line: FGFR1 (enzymatic assay), TR-FRET. The experiment is classed as biochemical. As to conditions: read-out: FGFR 1 pIC50 (converted). On the procedure:
In a final reaction volume of 30 μL, FGFR1 (h) (25 ng/ml) was incubated with 50 mM HEPES pH 7.5, 6 mM MnCl2, 1 mM DTT, 0.1 mM Na3VO4, 0.01% Triton-X-100, 500 nM Btn-Flt3 and 5 μM ATP in the presence of compound (1% DMSO final). […] Time-Resolved Fluorescence Resonance Energy Transfer (TR-FRET) signal (ex340 nm. Em 620 nm, em 655 nm) was measured afterwards and results are expressed in RFU (Relative Fluorescence Units).

A further experiment concerns the target KDR (h) (VEGFR2) (Homo sapiens, UniProt P35968). The experiment in a line: KDR (VEGFR2) (enzymatic assay), TR-FRET. The experiment is classed as biochemical. An outline of the steps:
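First, kinase (150 ng/ml), Btn-Flt3 (500 nM), ATP (3 μM) and compound (1% DMSO) react 120 min at RT in pH 7.5 HEPES/6 mM MnCl2. Next, EDTA with Eu-anti-P-Tyr and SA-XL-665 stops it for 60 min. Finally, TR-FRET is read as RFU.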

Chain of FGFR1 (h) (P11362 22-822): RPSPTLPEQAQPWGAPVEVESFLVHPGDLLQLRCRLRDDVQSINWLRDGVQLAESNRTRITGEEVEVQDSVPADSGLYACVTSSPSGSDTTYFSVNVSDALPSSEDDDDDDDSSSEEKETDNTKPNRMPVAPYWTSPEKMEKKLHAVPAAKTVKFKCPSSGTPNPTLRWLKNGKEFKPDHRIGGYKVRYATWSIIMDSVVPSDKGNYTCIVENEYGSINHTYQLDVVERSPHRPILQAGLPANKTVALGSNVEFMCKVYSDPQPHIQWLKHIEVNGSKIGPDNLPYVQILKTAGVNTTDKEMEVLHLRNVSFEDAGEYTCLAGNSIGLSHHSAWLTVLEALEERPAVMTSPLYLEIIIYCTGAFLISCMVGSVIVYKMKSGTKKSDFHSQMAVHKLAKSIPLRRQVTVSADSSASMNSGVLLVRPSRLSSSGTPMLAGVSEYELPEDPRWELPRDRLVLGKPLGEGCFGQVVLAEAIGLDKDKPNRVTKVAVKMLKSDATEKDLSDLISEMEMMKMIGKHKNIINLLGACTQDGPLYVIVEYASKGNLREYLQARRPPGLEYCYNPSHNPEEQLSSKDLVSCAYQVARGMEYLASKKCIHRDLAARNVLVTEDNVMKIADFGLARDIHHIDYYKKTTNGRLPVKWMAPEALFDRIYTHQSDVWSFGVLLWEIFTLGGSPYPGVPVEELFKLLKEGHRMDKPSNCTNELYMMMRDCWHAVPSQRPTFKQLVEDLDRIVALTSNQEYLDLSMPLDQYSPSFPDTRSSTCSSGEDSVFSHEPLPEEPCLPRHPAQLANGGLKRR
Chain of KDR (h) (VEGFR2) (P35968 20-1356): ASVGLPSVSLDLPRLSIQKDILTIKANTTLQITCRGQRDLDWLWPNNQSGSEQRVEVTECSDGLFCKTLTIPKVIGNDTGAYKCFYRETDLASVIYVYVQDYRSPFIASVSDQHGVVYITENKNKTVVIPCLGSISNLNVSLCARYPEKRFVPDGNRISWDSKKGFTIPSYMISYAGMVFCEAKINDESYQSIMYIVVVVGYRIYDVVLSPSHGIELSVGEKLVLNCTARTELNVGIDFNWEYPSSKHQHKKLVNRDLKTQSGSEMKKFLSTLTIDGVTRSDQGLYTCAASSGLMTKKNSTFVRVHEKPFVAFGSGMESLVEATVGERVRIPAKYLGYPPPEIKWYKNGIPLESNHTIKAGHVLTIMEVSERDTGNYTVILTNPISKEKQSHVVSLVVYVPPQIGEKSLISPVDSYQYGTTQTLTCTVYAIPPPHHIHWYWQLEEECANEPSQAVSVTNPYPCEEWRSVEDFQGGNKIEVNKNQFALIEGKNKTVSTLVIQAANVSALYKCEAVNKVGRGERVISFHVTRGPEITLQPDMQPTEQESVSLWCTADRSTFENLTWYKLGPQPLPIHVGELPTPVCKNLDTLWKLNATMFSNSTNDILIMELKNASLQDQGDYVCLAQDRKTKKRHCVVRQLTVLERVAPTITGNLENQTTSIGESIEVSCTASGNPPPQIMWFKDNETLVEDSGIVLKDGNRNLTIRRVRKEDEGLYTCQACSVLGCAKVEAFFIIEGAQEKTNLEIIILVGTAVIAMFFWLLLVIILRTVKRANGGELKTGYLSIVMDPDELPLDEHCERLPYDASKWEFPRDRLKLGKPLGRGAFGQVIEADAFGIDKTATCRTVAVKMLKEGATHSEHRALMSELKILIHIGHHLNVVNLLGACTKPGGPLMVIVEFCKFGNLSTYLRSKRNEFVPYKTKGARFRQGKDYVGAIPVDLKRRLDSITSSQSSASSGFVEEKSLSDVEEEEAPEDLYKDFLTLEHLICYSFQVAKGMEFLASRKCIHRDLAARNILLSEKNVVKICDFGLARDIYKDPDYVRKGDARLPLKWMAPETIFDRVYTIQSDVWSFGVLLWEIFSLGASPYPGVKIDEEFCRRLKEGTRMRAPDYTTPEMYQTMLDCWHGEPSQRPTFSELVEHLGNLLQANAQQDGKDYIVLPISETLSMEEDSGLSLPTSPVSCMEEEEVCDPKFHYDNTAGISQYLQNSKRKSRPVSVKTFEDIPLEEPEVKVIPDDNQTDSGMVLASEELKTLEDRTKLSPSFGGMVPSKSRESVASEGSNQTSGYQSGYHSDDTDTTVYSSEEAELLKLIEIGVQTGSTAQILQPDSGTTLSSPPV

With `COc1cc(OC)cc(N(CCNC(C)C)c2ccc3ncc(C(=O)N4CCN(C)CC4)nc3c2)c1` [Compound 179], the results for the IC50 (in experiment [1]; on FGFR1 (h); against KDR (h) (VEGFR2)) were more than 10 µM, 0.204 µM and 0.0776 µM, respectively. Also, the “BAF3-FLT3 (MIN IL3) 384 well pIC50” value in experiment [2] is recorded as less than 5.
For `COc1cc(OC)cc(N(CCNC(C)C)c2ccc3ncc(C(=O)N4CCCCC4)nc3c2)c1` [Compound 180] the same measures were more than 10 µM, 0.229 µM, 0.191 µM and less than 5.
Take `COc1cc(OC)cc(N(CCNC(C)C)c2ccc3ncc(C(=O)N4CCOCC4)nc3c2)c1` [Compound 181]: the IC50 is more than 10 µM in experiment [1], 0.295 µM at FGFR1 (h) and more than 1 µM against KDR (h) (VEGFR2). The “BAF3-FLT3 (MIN IL3) 384 well pIC50” value in experiment [2] is on record as less than 5.
For `COc1cc(OC)cc(N(CCNC(C)C)c2ccc3ncc(C(=O)NCCCN4CCCCC4)nc3c2)c1` [Compound 182], the IC50 is more than 10 µM in experiment [1], 0.0195 µM on FGFR1 (h) and 0.112 µM at KDR (h) (VEGFR2). Also, the “BAF3-FLT3 (MIN IL3) 384 well pIC50” value in experiment [2] was less than 5.
In the same order, the values of `COc1cc(OC)cc(N(CC#Cc2ncccc2OC)c2ccc3ncc(-c4cccnc4)nc3c2)c1` [Compound 183] are more than 10 µM, 0.155 µM, more than 1 µM and 5.04.
For `COc1cc(OC)cc(N(CCO)c2ccc3ncc(C(=O)Nc4cnn(C)c4)nc3c2)c1` [Compound 184] the same measures were more than 10 µM, 0.141 µM, more than 1 µM and less than 5.
For `COc1cc(OC)cc(N(CCO)c2ccc3ncc(C4CCN(C(=O)OC(C)(C)C)CC4)nc3c2)c1` [Compound 185] the same measures were more than 10 µM, 0.316 µM, more than 1 µM and less than 5.
Regarding `COc1cc(OC)cc(N(CCCO)c2ccc3ncc(-c4ccnc(C(=O)NCCOCCO)c4)nc3c2)c1` [Compound 186], the results for the IC50 (in experiment [1]; at FGFR1 (h); at KDR (h) (VEGFR2)) were more than 10 µM, 0.0447 µM and 0.871 µM, respectively. Moreover, in experiment [2], the “BAF3-FLT3 (MIN IL3) 384 well pIC50” value was less than 5.
